Reference: US11883442B1, “Composition for treating irritable bowel syndrome” (KING FAISAL UNIVERSITY, priority 2023, dated 2024)

Tested on: TNF-α
Assay: cytokine (TNF-α) levels in the colonic homogenate, TNBS-induced colitis model
Format: in vivo, C57B16j mice
Settings: at a pH value of 5.2; FIG. 2B
Experimental: Colitis was induced in C57B16j mice by 2,4,6-trinitrobenzene sulfonic acid (TNBS). TNBS induction was made at 0 and 4 days. BA 10^8/mL BA, EF 10^9/mL EF, and calciferol at […] was administered as oral gavage on alternative days from day 0 to day 14.
A comparative evaluation of cytokine (TNF-α) levels in the colonic homogenate of different mice groups from the TNBS-induced colitis model was performed. TNF-α was quantified after 14 days of the start of the experiment. All data were collected from three individual experiments and pooled and expressed as mean ±SD (p<0.05). The effect of BA and EF loads on the pro-inflammatory marker (TNF-α) in TNBS-induced colitis mice is illustrated in FIGS. 1A-1B (values are expressed in pg/mL).
Disease index and bleeding indicated degree of recovery of the disease in the group treated with the composition. […] TNF-α was quantified after 14 days of the experiment. The values are expressed in pg/mL. All data were collected from three individual experiments and pooled and expressed as mean ±SD (p<0.05). *p<0.05 represents significance.

C=C1CC[C@H](O)C/C1=C/C=C1\CCC[C@]2(C)[C@@H]([C@H](C)/C=C/[C@H](C)C(C)C)CC[C@@H]12 [calciferol]
most effective concentration of calciferol in the composition: 5 µM
